Literature values in patent US20200230099A1, “Stable Pharmaceutical Composition Comprising Zanamivir” (Dae Hwa Pharma. Co., Ltd., priority 2017, published 2020).
Like-named read-outs stand apart in the source and are kept apart here.

Settings: in vivo

SMILES: CC(=O)N[C@H]1[C@H]([C@H](O)[C@H](O)CO)OC(C(=O)O)=C[C@@H]1N=C(N)N [zanamivir, 5-(acetylamino)-4-[(aminoiminomethyl)amino]-2,6-anhydro-3,4,5-trideoxy-D-glycero-D-galacto-non-2-enonic acid]
- bioavailability: about 2%
- bioavailability (inhaled or intranasal): 4-17%
